Measured values from patent US10921327B2, “Probes for quantitative imaging of thiols in various environments” (Baylor College of Medicine, priority 2014, dated 2021).
Entries after “also recorded” stand apart in the source; their conditions may differ. Structures can show the parent of a compound that is named as a salt. Marks after values point to notes of the source that are not given here.

Experiments:
Solubility = assay type: physicochemical; settings: for solubility: PBS buffer, aqueous buffer
[1] = Reactivity of probes against β-mercaptoethanol in DMSO; assay type: binding
Description: (§1) Compounds 3b-d were dissolved in DMSO (10 mM) and 1 eq of 2 M β-mercaptoethanol (BME) was added. Compounds 3a and TQ Green were dissolved in PBS buffer (10 mM, pH 7.4) with 1% DMSO. GSH solution was added to reach a final concentration of 80 mM with compound 3a at 10 μM and TQ Green at 16 μM, respectively. All solutions were then monitored continuously with UV-Vis and fluorimeter for 2 hours (Table 1).

[2] = cited from earlier work
PANC-1 cells = assay: GSH level changes in PANC-1 cells upon DEM treatment (TQ Green live imaging); assay type: cell-based
Description: PANC-1 cells were treated with diethyl maleate (50 μM) for 24 hours and 2 hours to inhibit and stimulate GSH levels, respectively. All the cells were imaged 24 hours after starting the experiment. Results are statistical analyses of more than 25 cells. P values shown are based on unpaired student t-tests. Error bars represent standard deviations.
Applicants also treated PANC-1 cells with DEM for a very short time to stimulate the uptake of cysteine, thus increasing the GSH levels. After removal of DEM, the cells were further incubated under normal conditions for an additional 22 hours before imaging. […] Importantly, the GSH level obtained in DEM non-treated cells after 24 hours was essentially the same as the value measured at time zero (P=0.63), indicating excellent reproducibility of live imaging based GSH quantification.
PANC-1 cells were incubated with DEM (50 μM) for 2 hours for stimulation of cysteine uptake. After replacing with fresh medium, cells were cultured at normal conditions for another 22 hours. A separate dish of PANC-1 cells were incubated with DEM (50 μM) as an inhibitor for 24 hours. […] GSH concentrations were calculated based on the calibration curve. FACS was performed from harvested cells after treatment, fluorescent intensities were recorded with 405 nm laser/420-460 nm filter (pacific blue channel), and 488 nm laser/515-545 nm filter (FITC channel). […]

[3] = Log D in octanol-PBS (pH 7.4) biphasic system; assay type: physicochemical; settings: pH 7.4, read-out: Log D, estimated value based on HPLC result
Excerpt: To further understand TQ Green distribution between hydrophobic and hydrophilic environments, Applicants measured the Log D values of TQ Green and TQ Green-GSH using an octanol-PBS (pH 7.4) biphasic system (Table 2). […] In addition, Applicants discovered that the absorbance maximum of TQ Green shifts from 480 nm to 455 nm when changing the solvents from PBS to octanol. Applicants hypothesize that if TQ Green is distributed in lipid membranes, the absorbance maximum and fluorescence intensity will change. […] Consistent with the Log D measurements, this experiment also supports the hypothesis that TQ Green accumulates in lipid membranes. Considering the high quantum yield of TQ Green in hydrophobic solvents, lipid enrichment of TQ Green seemingly complicates intracellular GSH quantification. […] However, the Kd′ values may be different under calibration conditions and inside cells, which may introduce a systemic error.

[4] = UV-Vis absorption, fluorescence and quantum yield; assay type: physicochemical; settings: for Quantum Yield (PBS): λex = 479 nm (TQ Green), 406 nm (TQ Green-GSH)
Excerpt: TQ Green absorbs at 479 nm and fluoresces at 590 nm (λex=488 nm, FIG. 3). The extinction coefficients of TQ Green and TQ Green-GSH at their maximum absorption wavelengths are (2.3±0.2)×10^4 M^−1·cm^−1 (a, =479 nm, Table 2) and (1.6±0.2)×10^4 M^−1·cm^−1 (λmax=407 nm, Table 1), respectively. Upon reacting with GSH, the Abs and Fl peaks shift hypsochromically to 406 and 463 nm (λex=405 nm), respectively. The Abs of TQ Green and TQ Green-GSH (the adduct between TQ Green and GSH) are close to 488 and 405 nm, respectively, which are two commonly used laser wavelengths for confocal microscopes. […]
NMR spectra were recorded on a Varian NMR (^1H at 400 MHz) spectrometer. Chemical shifts (δ) were given in ppm with reference to solvent signals [^1H NMR: CDCl3 (7.26), CD3OD (3.31)]. UV-Vis measurements were performed with 2×10 mm quartz cuvette in Cary 60 UV-is Spectrometer. Fluorescence measurements were performed with the same quartz cuvette in Cary Eclipse Fluorescence Spectrophotometer with an excitation slit of 5 nm, an emission slit of 10 nm and PMT at 650 V. Flash chromatography was performed on a Teledyne ISCO CombiFlashRf200. Olympus FV1000 laser scanning confocal microscope system was used for cell imaging. ESI mass spectrometry was measured on a BrukerMS microTOF ESI, at the Shared Equipment Authority at Rice University. Flow cytometry was performed on BD LSR II Flow Cytometer at BCM core facilities.
As summarized in Table 5, quantum yields of synthesized GSH probes and a GSH adduct with Rhodamine 123 as the standard were analyzed. Quantum yields were determined using a comparative method described previously. The bromine atom on the phenyl ring potentially enhances the push-pull effect of the coumarin-based fluorophore, thus increases the quantum yield.

[5] = Equilibrium (dissociation constant) of probe and GSH reaction, UV-Vis/fluorescence; assay type: binding; settings: reaction with various concentration of GSH in water/PBS pH 7.4; based on UV-Vis; read-out: Kd′ observed (apparent) dissociation constant
Description: Applicants also determined Keq between TQ Green and GSH and the relationship of the ratiometric change as a function of GSH concentration. Kd′ is the apparent dissociation constant for the reaction between TQ Green and GSH. The following equation can be derived:
Plotting (R−Rmin)/(Rmax−R) as a function of GSH concentration afforded a superb linear relationship with r^2=0.999 (FIGS. 6-7).
TQ Green was dissolved in PBS buffer (10 mM, pH 7.4) containing 1% DMSO with concentration at 32 μM. GSH was dissolved in the same PBS buffer with concentration from 0-80 mM. Above solutions were mixed at 1:1 ratio. All solutions were protected with nitrogen and stored in glove box to prevent any oxygen entering the solution. Samples of all solutions were taken out at 1, 18, 72, and 144 hours after mixing. UV-Vis and fluorescence were measured for all solutions.
as §1

[6] = Reaction kinetics and reversibility of probe with GSH (UV-Vis); settings: 10 mM GSH in PBS, room temperature; TQ Green 16 μM, probe 3a 10 μM
Description: The reaction between TQ Green and GSH is reversible.
The second-order rate constant between TQ Green and GSH is 0.150±0.001M^−1·s^−1. There were no appreciable Abs changes observed after 20 minutes. Following a pause for another 80 minutes to ensure that the equilibrium between TQ Green and GSH was fully established, Applicants added two equivalents of an irreversible Michael acceptor (5,6-dihydro-2H-pyran-2-one) to deplete all the GSH in solution (FIG. 4A).
GSH in PBS was added to a solution of TQ Green in PBS buffer (10 mM, pH 7.4) containing 1% DMSO. The final concentrations of GSH and TQ Green were 10 mM and 16 μM, respectively. The solutions were then monitored continuously with UV-Vis spectrometer (FIGS. 21A-D).

[7] = 10 mM solution, capped tube, 10 hour time period, HPLC 254 nm
Description: A GSH solution (10 mM) was placed in a capped Eppendorf tube. Samples of solution were taken out for HPLC measurement every two hours. […] The percentage was calculated from the HPLC peak area monitored at 254 nm.

cells = assay: Confocal imaging of probe interacting with cells (cell penetration); assay type: cell-based
Description: FIG. 10 provides confocal images at 488 nm channel of TQ Green (acid form, FIG. 10A), and TQ Green-AM (ester form, FIG. 10B) interacting with cells.
All cell lines used in this study were purchased from American Type Culture Collection (ATCC) and grown in DMEM (Gibco, 11965) media supplemented with 10% FBS and 1% 1003 Pen Strep (Gibco). Cells were cultured under a controlled atmosphere (37° C., 5% CO2). Glass dishes were used for cell culture due to confocal scanning requirements. Cells were treated with TQ Green-AM (20 nM-1 μM with 0.0025-1% DMSO in PBS) for 30 minutes, followed by two washing steps with tryptan blue and PBS prior to imaging. Fluorescent images were acquired with 405 nm laser/430-470 nm filter and 488 nm laser/575-620 nm filter. All the microscope settings were kept consistent in each experiment.

[8] = Hydrolysis of TQ Green-AM in PBS and diluted HeLa cell lysate (HPLC UV-vis/MS); assay type: in vitro ADME; settings: 40 μM, 37° C.
Description: In order to allow TQ Green to efficiently penetrate into cells for GSH measurements, Applicants converted the carboxylic acid group to an acetoxymethyl (AM) ester (FIG. 10). Once inside cells, the AM ester will be readily hydrolyzed by esterases to regenerate TQ Green. To verify this, Applicants incubated TQ Green-AM (FIG. 11, 40 μM) in PBS for 2 hours and in a 500 times diluted HeLa cell lysate for 10 hours at 37° C. (Note: the dilution factor for the cell lysate is calculated based on the fact that ˜400,000 of HeLa cells, which have a total volume of ˜2 μL, were lysed in 1 mL of lysis buffer, resulting in 500 times dilution of cellular components, Table 3). A mixture of TQ Green and TQ Green-AM standard samples and the reaction mixtures after incubation in PBS and in cell lysate were separated using high performance liquid chromatography (HPLC) with a tandem of UV-vis and mass spectrometer (MS) detectors.
TQ Green-AM (40 μM) was incubated in PBS for 2 hours and in a 500 times diluted HeLa cell lysate for 10 hours at 37° C. The reaction products were analyzed by HPLC with a tandem of UV-vis and MS detectors. Analytical standards TQ Green and TQ Green-AM (red trace C) were used to determine the retention time of the corresponding compounds. […] Under the elution conditions used, TQ Green and TQ Green-GSH cannot be separated. However, their identities were confirmed by MS. […]

[9] = methanol; cited from earlier work

CCN(CC)c1ccc2cc(/C=C(\C)C(=O)c3ccccc3)c(=O)oc2c1 [Compound 3c]
solubility (Solubility): < 10 µM | Michael addition between thiol and probe [1]: significantly blocks the Michael addition

CCN(CC)c1ccc2cc(/C=C/C(=O)c3ccccc3O)c(=O)oc2c1 [Compound 3d]
solubility (Solubility): < 10 µM | Kd ([1]; β-mercaptoethanol in DMSO, read-out: Kd′ observed dissociation constant): ~2000 µM

FC(F)(F)c1ccc(S)cc1 [p-trifluorobenzenethiol]
pKa [2]: 5.5

CCOC(=O)/C=C\C(=O)OCC [DEM, diethyl maleate]
Increase in GSH levels (PANC-1 cells; 50 μM for 2 hours, then 22 hours normal conditions (stimulation)): 28% | Decrease in GSH levels (PANC-1 cells; 50 μM for 24 hours (inhibition)): 27%

CCN(CC)c1ccc2cc(C(CC(=O)c3ccc(C(=O)O)cc3Br)SCC(NC(=O)CCC(N)C(=O)O)C(=O)NCC(=O)O)c(=O)oc2c1 (stereo not shown) [TQ Green-GSH]
logD [3]: < -1 | Solubility in methanol (Solubility; methanol): ^aTQ Green-GSH is not soluble in methanol | Solubility in octanol (Solubility): not soluble | Abs Max Wavelength ([4]; PBS pH 7.4): 406 nm | Fl Emission Max Wavelength ([4]; PBS pH 7.4, λex = 488 nm (TQ Green), λex = 405 nm (TQ Green-GSH)): 463 nm | Quantum Yield (PBS) [4]: 0.0059±0.0003 | Quantum Yield (PBS) ([4]; listed as drawing 20): 0.0059 ± 0.0003

CCN(CC)c1ccc2cc(/C=C/C(=O)c3ccc(C(=O)O)cc3)c(=O)oc2c1 [Compound 3a]
Kd [5]: 1500 µM | Time to reach 95% of conversion [6]: ~6 min | solubility (Solubility): > 500 µM | Quantum Yield (Methanol) ([4]; methanol, Rhodamine 123 as standard): 0.062 ± 0.002

N[C@@H](CCC(=O)N[C@@H](CS)C(=O)NCC(=O)O)C(=O)O [GSH, glutathione]
Solubility in octanol (Solubility): not soluble | GSH oxidized in air [7]: About 20%

CCN(CC)c1ccc2cc(/C=C/C(=O)c3ccc(C(=O)OCOC(C)=O)cc3Br)c(=O)oc2c1 [TQ Green-AM]
Cell penetration (confocal, 488 nm channel) (cells): able to penetrate through cell the membrane | Hydrolysis in diluted cell lysate ([8]; 500 times diluted HeLa cell lysate, 10 hours): completely converted to a mixture of TQ Green and TQ Green-GSH adduct; also recorded: completely hydrolyzed | Hydrolysis in PBS ([8]; PBS, 2 hours): resistant to hydrolysis; also recorded: did not show appreciable hydrolysis

COC(=O)c1ccccc1-c1c2ccc(=N)cc-2oc2cc(N)ccc12.Cl [Rhodamine 123]
Quantum Yield, used as standard [9]: 0.94*

CCN(CC)c1ccc2cc(/C=C/C(=O)c3ccccc3)c(=O)oc2c1 [Compound 3b]
solubility (Solubility): < 10 µM
